{"source": "patent US5712298A", "about": "“Fluoroalkoxy-substituted benzamides and their use as cyclic nucleotide phosphodiesterase inhibitors” (BYK Gulden Lomberg Chemische Fabrik GmbH, priority 1993, dated 1998)", "key": {"[1]": {"test_system": "PDE IV", "experiment": "Inhibition of PDE IV activity", "type": "biochemical"}, "[2]": {"test_system": "conscious guinea-pigs", "experiment": "Effect on dyspnoea and migration of proinflammatory cells into the airway lumen after allergic reaction of conscious guinea-pigs", "type": "in vivo, guinea-pig", "settings": "30 μmol/kg p.o.", "description": "2. Effect of dyspnoea and migration of proinflammatory (immunocompetent) cells from the blood vessels into the airway lumen after allergic reaction of conscious guinea-pigs\nImmunocompetent blood cells (leucocytes) appear in the airway lumens under the influence of allergic, inflammatory reactions. This pathological migration can support itself, i.e. lead to chronic changes, and plays an important part as a pathological mechanism of chronic airway obstruction (of asthma) but also of allergic rhinitis and/or conjunctivitis. The inhibition of the migration by pharmaceuticals is an important therapeutic principle and is a measure of antiallergic or antiinflammatory actions.\nThe experimental animal methodology employed for the measurement of the acute effect of an allergic reaction on respiration and cell migration itself essentially follows the descriptions of P. A. Hutson et al. (Am. Rev. Respir. Dis., 137, 548, 1988) and J. P. Tarayre et al. (J. Parmacol. Meth., 23, 13, 1990) and also R. Beume et al. (Atemw. Lungenkrkh., 11, 324, 1985).\nA defined guinea-pig collective is sensitized intraperitoneally to ovalbumin (20 μg+20 mg of Al(OH)3). 14 days later, the animals are tested:\n0 h provocation of the allergic reaction, thoracographic latency time measurement until occurrence of dyspnoea, non-occurrence=protective action.\n+24 h anaesthesia and bronchoalveolar lavage: Determination of the total cell number, counting of the differential cell picture in the lavage, determination of the protein content in the cell-free supernatant of the lavage.\nThe controlled used in each case was 1 random sample of sensitized animals: Placebo treatment+sham provocation or placebo treatment+provocation.\nThe compound of Example 1 (=compound 1), 30 μmol/kg p.o., acts on the parameters of this relation as follows: […]"}, "[3]": {"settings": "bronchoalveolar lavage +24 h after provocation"}, "[4]": {"settings": "cell-free supernatant of lavage +24 h after provocation"}}}
{"smiles": "COc1cc(C(=O)Nc2c(Cl)cncc2Cl)ccc1OC(F)F", "note": "[Compound 1, N-(3,5-Dichloropyrid-4-yl)-4-difluoromethoxy-3-methoxybenzamide]", "values": [{"measurement": "-log IC50", "setting": "[1]", "value": 8.64}, {"measurement": "Passage of cells and protein after provocation", "setting": "[2]; base values = placebo + sham provocation", "value": "inhibits these passages to base values"}, {"measurement": "Eosinophilic granulocytes, median", "setting": "[2]; [3]", "value": "1.2 × 10^6 /10 ml"}, {"measurement": "Eosinophilic granulocytes, median: bracketed value (relative to placebo + sham provocation = 1)", "setting": "[2]; [3]", "value": 1.5}, {"measurement": "Eosinophilic granulocytes, min./max.", "setting": "[2]; [3]", "value": "0.6-2.5 × 10^6 /10 ml"}, {"measurement": "Macrophages, median", "setting": "[2]; [3]", "value": "1.2 × 10^6 /10 ml"}, {"measurement": "Macrophages, median: bracketed value (relative to placebo + sham provocation = 1)", "setting": "[2]; [3]", "value": 0.8}, {"measurement": "Macrophages, min./max.", "setting": "[2]; [3]", "value": "0.9-2.3 × 10^6 /10 ml"}, {"measurement": "Neutrophilic granulocytes, median", "setting": "[2]; [3]", "value": "0.0 × 10^6 /10 ml"}, {"measurement": "Neutrophilic granulocytes, median: bracketed value (relative to placebo + sham provocation = 1)", "setting": "[2]; [3]", "value": 0}, {"measurement": "Neutrophilic granulocytes, min./max.", "setting": "[2]; [3]", "value": "0.0-0.08 × 10^6 /10 ml"}, {"measurement": "Total leucocytes, median", "setting": "[2]; [3]", "value": "2.5 × 10^6 /10 ml"}, {"measurement": "Total leucocytes, median: bracketed value (relative to placebo + sham provocation = 1)", "setting": "[2]; [3]", "value": 1.1}, {"measurement": "Total leucocytes, min./max.", "setting": "[2]; [3]", "value": "1.5-4.2 × 10^6 /10 ml"}, {"measurement": "Protein content, median", "setting": "[2]; [4]", "value": 4.1, "unit": "mg/10 ml"}, {"measurement": "Protein content, median: bracketed value (relative to placebo + sham provocation = 1)", "setting": "[2]; [4]", "value": 1.1}, {"measurement": "Protein content, min./max.", "setting": "[2]; [4]", "value": "2.6-11.0 mg/10 ml"}, {"measurement": "N, of which protected", "setting": "[2]; ovalbumin provocation, N = 14, non-occurrence of dyspnoea = protective action", "value": 8, "unit": "animals"}]}
{"smiles": "O=C(Nc1c(Cl)cncc1Cl)c1ccc(OC(F)F)c(OC(F)F)c1", "note": "[Compound 2, N-(3,5-Dichloropyrid-4-yl)-3,4-bis-difluoromethoxybenzamide]", "values": [{"measurement": "-log IC50", "setting": "[1]", "value": 8.42}]}
{"smiles": "O=C(Nc1c(Cl)cncc1Cl)c1ccc(OC(F)F)c(OCC2CCC2)c1", "note": "[Compound 3, N-(3,5-Dichloropyrid-4-yl)-3-cyclobutylmethoxy-4-difluoromethoxybenzamide]", "values": [{"measurement": "-log IC50", "setting": "[1]", "value": 8.74}]}
{"smiles": "O=C(Nc1c(Cl)cncc1Cl)c1ccc(OC(F)F)c(OC2CCCC2)c1", "note": "[Compound 4, N-(3,5-Dichloropyrid-4-yl)-3-cyclopentyloxy-4-difluoromethoxybenzamide]", "values": [{"measurement": "-log IC50", "setting": "[1]", "value": 9.18}]}
